# Experimental data from US12043827B2, “Compositions, systems, and methods for base diversification” (Pairwise Plants Services, Inc., priority 2020, dated 2024).
# B1: thMPG: truncated variant of hMPG, SEQ ID NO:85, fused to ABE8.20m (protein, listed as Homo sapiens)
# chain: KGHLTRLGLEFFDQPAVPLARAFLGQVLVRRLPNGTELRGRIVETEAYLGPEDEAAHSRGGRQTPRNRGMFMKPGTLYVYIIYGMYFCMNISSQGDGACVLLRALEPLEGLETMRQLRSTLRKGTASRVLKDRELCSGPSKLCQALAINKSFDQRDLAQDEAVWLERGPLEPSEPAVVAAARVGVGHAGEWARKPLRFYVRGSPWVSVVDRVAEQDTQA
# Tests used:
# Assay type in all cases: cell-based
# [1] = tested on: endogenous loci; assay: Transversion mutations from adenine: ABE7.10 with inosine glycosylases (fusion or in trans), HTS in HEK293T cells; conditions: all conditions that used ABE7.10, 3 days
# Description: The experiment was designed to generate transversion mutations from adenines by promoting inosines to undergo the same cellular DNA repair pathways that generate transversion mutations during translesion-bypass polymerization in cytosine base editing. While not wishing to be bound to any particular theory, it was hypothesized that the key step was to facilitate the glycosylation of inosines generated during adenine base editing. It was hypothesized that once glycosylated, the resulting abasic site can be a substrate for translesion-bypass repair and that this would lead to transversion mutations. Exogenous inosine glycosylases were provided along with ABE to promote inosine glycosylation.
# Several inosine glycosylases were screened in HEK293T cells and it was determined whether they were capable of acting on inosines generated by ABE. If inosine is converted into an abasic site, and subsequently repaired through translesion-bypass polymerization, transversion mutations can be generated from adenines.
# Five different glycosylases from various species were selected for testing. The following genes were codon-optimized and cloned into a mammalian expression vector, either as unfused gene, or as a C-terminal fusion to ABE7.10 (species source in parenthesis); hMPG (Homo sapiens) having an amino acid sequence of SEQ ID NO:84, mMPG (Mus musculus) having an amino acid sequence of SEQ ID NO:83, rMPG (Rattus norvegicus) having an amino acid sequence of SEQ ID NO:80, SpThp1 (Schizosaccharomyces pombe) having an amino acid sequence of SEQ ID NO:79, MaHDG (Methanosarcina acetivorans) having an amino acid sequence of SEQ ID NO:81, and MbHDG (Methanosarcina barkeri) having an amino acid sequence of SEQ ID NO:82. […] The HEK293T cells were transfected with a plasmid encoding gRNA targeting endogenous loci and either the fusion plasmid or a mixture of plasmids expressing ABE7.10 and the above inosine glycosylases. After 3 days, high-throughput sequencing was used to determine the editing result of targeted adenines. Mock transfection (using pUC19) was used to set baseline editing. All conditions that used ABE7.10 generated 10-20% guanine transition, as expected.
# [2] = tested on: HEK2 genomic site; assay: Adenine base editing with inosine glycosylases, HEK2 site (FIGS. 7A-7C); conditions: all conditions that used ABE
# Description: FIGS. 7A-7C are graphs showing adenine base editing results for a HEK2 genomic site. Adenines in the target window were diversified into cytosine and thymine. All conditions that used ABE generated ˜10-20% guanine mutation, as expected. FIG. 7A is a graph providing the results for inosine glycosylase fusion constructs. FIG. 7B is a graph providing the results for inosine glycosylases provided in trans and overexpressed in the cell. FIG. 7C is a graph showing the amount of indels generated by the constructs.
# (§1) Five different glycosylases from various species were selected for testing. The following genes were codon-optimized and cloned into a mammalian expression vector, either as unfused gene, or as a C-terminal fusion to ABE7.10 (species source in parenthesis); hMPG (Homo sapiens) having an amino acid sequence of SEQ ID NO:84, mMPG (Mus musculus) having an amino acid sequence of SEQ ID NO:83, rMPG (Rattus norvegicus) having an amino acid sequence of SEQ ID NO:80, SpThp1 (Schizosaccharomyces pombe) having an amino acid sequence of SEQ ID NO:79, MaHDG (Methanosarcina acetivorans) having an amino acid sequence of SEQ ID NO:81, and MbHDG (Methanosarcina barkeri) having an amino acid sequence of SEQ ID NO:82. […]
# [3] = tested on: FANCF genomic site; assay: Adenine base editing with inosine glycosylases, FANCF site (FIGS. 8A-8C); conditions: all conditions that used ABE
# Description: FIGS. 8A-8C are graphs showing adenine base editing results for a FANCF genomic site. Adenines in the target window were diversified into cytosine and thymine. All conditions that used ABE generated ˜10-20% guanine mutation, as expected. FIG. 8A is a graph providing the results for inosine glycosylase for fusion constructs. FIG. 8B is a graph providing the results for inosine glycosylases provided in trans and overexpressed in the cell. […] is a graph showing the amount of indels generated by the constructs.
# as §1
# [4] = tested on: spacer sequence corresponding to SEQ ID NO:131; assay: SunTag recruitment system for adenine base diversifier / reduced Cas9 binding affinity, HTS in HEK293T cells; conditions: scFv-TadA8.20m-GB1 or scFv-TadA8e-GB1, glycosylase overexpressed in trans, FIGS. 10 and 11
# Description: Different forms of Cas9 were expressed in HEK293T cells, which were: nCas9(D10A) (SEQ ID NO:36), dCas9-SunTag (SEQ ID NO:135), nCas9(D10A)-SunTag (SEQ ID NO:136), and enCas9(D10A)-SunTag (SEQ ID NO:137), along with a SunTag-antibody-fused adenine deaminase, with a GB1 solubility tag at the C-terminus, having a sequence of SEQ ID NO:138 or SEQ ID NO:139. An inosine glycosylase, which was hMPG (SEQ ID NO:84), mMPG (SEQ ID NO:83), or SpThp1 (SEQ ID NO:79) was overexpressed in trans. The glycosylase was not actively recruited, but was expressed in the cell at the same time as the Cas9 and deaminase.
# In an attempt to reduce the Cas9 DNA binding affinity to a target nucleic acid, Cas9 having mutated amino acid residues that may interact with the target nucleic acid were used. Without being limited to any particular theory, the thought was that this would facilitate the dissociation of Cas9 from the target nucleic acid once adenine is converted to inosine; thus, providing greater access for inosine glycosylase. Specifically, enCas9(D10A) (SEQ ID NO:39) contains two mutations that reduce DNA binding affinity compared to nCas9(D10A) (Halperin et al. Nature 2018 560(7717):248-252). The effect of the mutations in the context of SunTag-mediated adenine diversification were tested. […]
# After three days, the editing efficiency was measured by high throughput sequencing of targeted loci. […]
# [5] = tested on: Sites 1-4 (SEQ ID NO:131-134); assay: Truncation of inosine glycosylase regulatory domain, hMPG vs thMPG fusions to ABE8.20m; conditions: N- and C-terminus fusions to ABE8.20m, four sites, FIG. 12
# Description: Methylpurine glycosylase (MPG) usually contains two domains. The catalytic domain of MPG is necessary for excising inosine from DNA (Hollis, Lau, Ellenberger. Mutation Research 2000, 460, 201-210). Without being bound to any particular theory, in an effort to reduce the size of MPG, potentially allow for better inosine access to the catalytic domain, and potentially improve the solubility of the fusion complex, the N-terminus of MPG was truncated.
# In this experiment, both N-terminus and C-terminus fusions of hMPG to ABE8.20m (SEQ ID NO:57) were tested with a truncated variant of hMPG (thMPG) (SEQ ID NO:85). Four different target nucleic acids were tested, which were: Site 1: […] (SEQ ID NO:131), Site 2: […] (SEQ ID NO:132), Site 3: […] (SEQ ID NO:133), and Site 4: […] (SEQ ID NO:134).
molecule,measurement,setting,value
"ABE7.10: adenine base editor, unfused ABE7.10 having amino acid sequence of SEQ ID NO:55",guanine transition of targeted adenines,[1],10-20%
same,guanine mutation,[2],10-20%
same,guanine mutation,[3],10-20%
"nCas9(D10A)-SunTag: Cas9 nickase (D10A) fused to SunTag, SEQ ID NO:136",A to C or T editing,[4],increase in A to C or T editing compared to expression of nCas9(D10A) without SunTag
B1,"adenine conversion to C or T activity, truncated vs full-length MPG",[5],"no observed decrease in activity and, in some cases, there was an observed increase in adenine conversion to C or T"
